Columns and labels:
[1] = test system: B16F10 melanoma cell line; experiment: 3D tumor culture T cell infiltration drug screen scored by neural network, B16F10; conditions: B16F10 melanoma cell line-based screen; library of 141 small molecule epigenetic modulators; averaging the scores of a total of 10 images; FIG. 6
Description: (§1) Once the predicted Rd is determined, the predicted Rd for each patient can be classified as depicted in Step 215 of FIG. 2. For example, Rd can be defined as high, medium, and low-survival groups by binning the Rd's by or into risk classifications or categories, such as low survival, medium survival and high survival. Low survival may mean the Rd>75% of TCGA SKCM patient dataset; medium survival may mean Rd=25%-75% of TCGA SKCM patient dataset; and high survival may mean Rd<25% of TCGA SKCM patient dataset. Each risk classification or category may be associated with a predetermined values, such as 0 for low survival (high risk), 1 for medium survival (medium risk), and 2 for high survival (low risk).
(§2) The trained neural network as described in FIG. 1 and FIG. 4 is transferred to 3D tumor culture dataset 305, a drug screening method and/or a companion diagnostic method 300 may be performing using the algorithms discussed above with respect to FIGS. 1, 2 and 4 to objectively quantify and predict/score the effectiveness of a drug or a treatment based on a particular type of TIL behavior within 3D tumor cultures or patent tumor tissue samples. For example, a library of 141 small molecule epigenetic modulators in 2 cancer cell lines (e.g., B16F10 melanoma and UN-KC6141 pancreatic cancer) were screened. […]

[2] = test system: UN-KC6141 pancreatic cancer cell line; experiment: 3D tumor culture T cell infiltration drug screen scored by neural network, UN-KC6141; conditions: UN-KC6141 pancreatic cancer cell line-based screen; library of 141 small molecule epigenetic modulators; averaging the scores of a total of 10 images; FIG. 6
Description: as §1, §2

c1ccc([C@@H]2C[C@H]2NC2CCNCC2)cc1 [GSK-LSD1]
final score (T cell infiltration enhancement activity) [1]: highest score
final score (T cell infiltration enhancement activity) [2]: highest score

From US12456194B2, “Methods for identifying and using cell behavior in drug screening and diagnosis” (Indiana University Research and Technology Corporation, priority 2020, dated 2025)
